Test results published in ChEMBL document CHEMBL1145650, “5-Aryluracils as potent GnRH antagonists-Characterization of atropisomers” (Bioorg Med Chem Lett, 2008).

What was measured:
[1] = biological target: T1, Gonadotropin-releasing hormone receptor (Homo sapiens, UniProt P30968); assay: Antagonist activity at human GnRHR assessed as inhibition of calcium flux by IP3 assay; type: functional
T1 sequence (P30968 whole entry): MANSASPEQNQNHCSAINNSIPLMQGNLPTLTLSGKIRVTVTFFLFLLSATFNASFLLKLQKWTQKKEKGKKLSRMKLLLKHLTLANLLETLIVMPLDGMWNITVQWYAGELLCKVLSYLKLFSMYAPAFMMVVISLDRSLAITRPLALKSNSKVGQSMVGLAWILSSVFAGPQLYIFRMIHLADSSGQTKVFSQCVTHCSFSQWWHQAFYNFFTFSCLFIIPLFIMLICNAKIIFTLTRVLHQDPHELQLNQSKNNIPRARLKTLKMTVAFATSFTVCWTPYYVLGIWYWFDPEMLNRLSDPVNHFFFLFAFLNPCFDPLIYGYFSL

[2] = biological target: T1, Gonadotropin-releasing hormone receptor; assay: Binding affinity to human GnRHR

IC50 [1] [nM]	Ki [2] [nM]	SMILES
5.4	0.7	COc1cccc(-c2c(C)n(Cc3c(F)cccc3C(F)(F)F)c(=O)n(C[C@H](CO)NC3CCCC3)c2=O)c1Cl
–	3.7	CC[C@@H](Cn1c(=O)c(-c2cccc(OC)c2Cl)c(C)n(Cc2c(F)cccc2C(F)(F)F)c1=O)NC1CCCC1
1.5	0.3	COc1cccc(-c2c(C)n(Cc3c(F)cccc3C(F)(F)F)c(=O)n(C[C@H](C)NC3CCCC3)c2=O)c1Cl (single isomer, unassigned; form 2)
2.6	0.36	COc1cccc(-c2c(C)n(Cc3c(F)cccc3C(F)(F)F)c(=O)n(C[C@H](CO)NC3CCCC3)c2=O)c1Cl (atropisomer R)
–	4.2	CC[C@@H](Cn1c(=O)c(-c2cccc(OC)c2F)c(C)n(Cc2c(F)cccc2C(F)(F)F)c1=O)NC1CCCC1
–	20	CC[C@H](Cn1c(=O)c(-c2cccc(OC)c2F)c(C)n(Cc2c(F)cccc2C(F)(F)F)c1=O)NC1CCCC1
385	61	COc1cccc(-c2c(C)n(Cc3c(F)cccc3C(F)(F)F)c(=O)n(C[C@H](C)NC3CCCC3)c2=O)c1Cl (single isomer, unassigned; form 1)
–	33	COc1cccc(-c2c(C)n(Cc3c(F)cccc3C(F)(F)F)c(=O)n(C[C@@H](C)NC3CCCC3)c2=O)c1F
–	7.4	CC[C@H](Cn1c(=O)c(-c2cccc(OC)c2Cl)c(C)n(Cc2c(F)cccc2C(F)(F)F)c1=O)NC1CCCC1
3.3	0.61	COc1cccc(-c2c(C)n(Cc3c(F)cccc3C(F)(F)F)c(=O)n(C[C@H](C)NC3CCCC3)c2=O)c1F
–	4.9	COc1cccc(-c2c(C)n(Cc3c(F)cccc3F)c(=O)n(C[C@H](CO)NC3CCCC3)c2=O)c1F
2500	190	COc1cccc(-c2c(C)n(Cc3c(F)cccc3C(F)(F)F)c(=O)n(C[C@H](CO)NC3CCCC3)c2=O)c1Cl (single isomer, unassigned; atropisomer)
–	4.5	COc1cccc(-c2c(C)n(Cc3c(F)cccc3C(F)(F)F)c(=O)n(C[C@H](C)NC3CCCC3)c2=O)c1
